Read-outs that look alike come from different tables or passages of the source.
How the values were obtained:
PDGFR-α = PDGFR-α (Homo sapiens, UniProt P16234); assay: Kinase inhibition assay (ELISA); type: biochemical; conditions: 1 µM ATP
Experimental: (§1) To determine the interaction of our compounds with tyrosine kinases: PDGFR-α, cKIT, PDGFR-β, VEGFR-2 we used enzyme-linked immunosorbent assay (ELISA).
(§2) Determination plates preparation: The plates are processed by neutravidine for 2 h at 30°C. After washing thrice with TBS/0.1% Tween-20 and blocking with 1% BSA/TBS for 1 h at room temperature (RT) 96-well microtiter plates were washed thrice with TBS/0.1% Tween-20 again.
(§3) Reaction: After addition test compounds (in DMSO, DMSO final concentration - 5%) to reaction buffer (20 mM HEPES, pH 7.5, 15 mM MgCl2, 3 mM MnCl2, 2 mM DTT, 0.2 mM Na3VO4, 0.005% Triton X-100; PDGFR-α,: 0.05 µg/ml, 0.5 µg/ml Poly(G,T)-biotin; PDGFR-β: 0.05 µg/ml, 1 µg/ml Poly(G,T)-biotin; c-KIT: 0.03 µg/ml, 0.15 µg/ml Poly(G,T)-biotin; VEGFR-2: 0.07 µg/ml, 0.05 µg/ml Poly(G,T)-biotin) and preincubation of reaction for 10 min at RT and intensive agitation, ATP solution (PDGFR-α, - 1 µM, PDGFR-β - 0.5 µM, c-KIT - 60 µM, VEGFR-2: - 1.5 µM ATP in reaction buffer per well) was added to initiate reaction. Following incubation of mixture for 1 h at 30°C and intensive agitation the reaction was stopped by stop solution (20 mM HEPES, pH 7.5, 50 mM EDTA).
(§4) Kinase activity determination: The reaction mixture was transferred to determination plate. After mix incubation for 1 h at RT and intensive agitation the plates were washed thrice with TBS/0.1% Tween-20. Following mouse monoclonal 0.05 µg/ml Anti-p-Tyr (PY20) HRP antibodies (Santa Cruz Biotechnology) in PBS/BSA were added for 1 h at RT and intensive agitation. After washing, antibody binding was detected by tetramethylbenzidine (TMB) color development (Sigma). Measurement of A450 nm was carried out after addition of H2SO4

VEGFR-2 = VEGFR-2 (Homo sapiens, UniProt P35968); assay: Kinase inhibition assay (ELISA); type: biochemical; conditions: 1.5 µM ATP
Experimental: as §1, §2, §3, §4

cKIT = cKIT (Homo sapiens, UniProt P10721); assay: Kinase inhibition assay (ELISA); type: biochemical; conditions: 60 µM ATP
Experimental: as §1, §2, §3, §4

A172 = assay: MTT proliferation / cytotoxicity assay; type: cell-based, human; conditions: Homo sapiens, A 172, 72 h, glioblastoma cell line
Experimental: (§5) Cell culture. The human cancer cell lines A172, A375, A2780 and U251 were purchased from the American Type Culture Collection. All cells were routinely maintained in DMEM containing 10% fetal bovine serum (Omega Scientific), at 37°C in 5% C02.
(§6) Proliferation assay Inhibition of cell A172, A375, A2780 and U251 cell proliferation was assessed by a MTT assay (MTT = Thiazolyl Blue Tetrazolium Bromide) . Cells were inoculated into 96-well microtiter plates containing 0.5% fetal calf serum and incubated at 37°C, 5% CO2, 95% air, and 100% relative humidity for 24 h prior to addition of testing compounds. Following compounds addition, the plates were incubated for an additional 72 h before processing to measure the cell population. Each compound was tested at eight different concentrations in triplicate, as was a control sample. Growth inhibition of 50% (IC50) is calculated by analysis of the data in Prizm3.4 software.
(§7) Table 8 lists IC50 values for inhibition of growth of several cancer cell lines, including the glioblastoma cell lines A172 and U251, measured in a MTT cytotoxicity assay. Table 8. Data of cytotoxicity assay (MTT) for several cancer cell lines, IC50 [µM]

A2780 = assay: MTT proliferation / cytotoxicity assay; type: cell-based, human; conditions: Homo sapiens, A2780, 72 h
Experimental: as §5, §6, §7

A375 = assay: MTT proliferation / cytotoxicity assay; type: cell-based, human; conditions: Homo sapiens, A-375, 72 h
Experimental: as §5, §6, §7

U251 = assay: MTT proliferation / cytotoxicity assay; type: cell-based, human; conditions: Homo sapiens, U-251, 72 h, glioblastoma cell line
Experimental: as §5, §6, §7

[1] = In vivo PK study, determination of brain-to-plasma ratio; conditions: mouse, SHK mice, PO dosing 5mg/kg, 20% water solution of HPβCD, read-out: brain-to-plasma concentration ratio
Experimental: Male SHK mice (22-25 g) were dosed with 5 mg/kg of related compounds as a single injection via oral gavage (formulated in 20% water solution of HPβCD). Blood samples and whole brains were collected from three mice at each of eight collection time points of 0.05, 0.25, 0.5, 1, 2, 4, 8 and 24 h post dose. Plasma was collected from blood samples, and whole brain samples were homogenized in three volumes of water. Both tissues were analyzed for concentrations of related compounds by liquid chromatography-mass spectrometry (LC-MS/MS). Table 9. brain-to-plasma concentration ratios in SHK mice after PO dosing 5mg/kg for several selected examples

VEGFR-2, sequence (P35968 20-1356, species assumed): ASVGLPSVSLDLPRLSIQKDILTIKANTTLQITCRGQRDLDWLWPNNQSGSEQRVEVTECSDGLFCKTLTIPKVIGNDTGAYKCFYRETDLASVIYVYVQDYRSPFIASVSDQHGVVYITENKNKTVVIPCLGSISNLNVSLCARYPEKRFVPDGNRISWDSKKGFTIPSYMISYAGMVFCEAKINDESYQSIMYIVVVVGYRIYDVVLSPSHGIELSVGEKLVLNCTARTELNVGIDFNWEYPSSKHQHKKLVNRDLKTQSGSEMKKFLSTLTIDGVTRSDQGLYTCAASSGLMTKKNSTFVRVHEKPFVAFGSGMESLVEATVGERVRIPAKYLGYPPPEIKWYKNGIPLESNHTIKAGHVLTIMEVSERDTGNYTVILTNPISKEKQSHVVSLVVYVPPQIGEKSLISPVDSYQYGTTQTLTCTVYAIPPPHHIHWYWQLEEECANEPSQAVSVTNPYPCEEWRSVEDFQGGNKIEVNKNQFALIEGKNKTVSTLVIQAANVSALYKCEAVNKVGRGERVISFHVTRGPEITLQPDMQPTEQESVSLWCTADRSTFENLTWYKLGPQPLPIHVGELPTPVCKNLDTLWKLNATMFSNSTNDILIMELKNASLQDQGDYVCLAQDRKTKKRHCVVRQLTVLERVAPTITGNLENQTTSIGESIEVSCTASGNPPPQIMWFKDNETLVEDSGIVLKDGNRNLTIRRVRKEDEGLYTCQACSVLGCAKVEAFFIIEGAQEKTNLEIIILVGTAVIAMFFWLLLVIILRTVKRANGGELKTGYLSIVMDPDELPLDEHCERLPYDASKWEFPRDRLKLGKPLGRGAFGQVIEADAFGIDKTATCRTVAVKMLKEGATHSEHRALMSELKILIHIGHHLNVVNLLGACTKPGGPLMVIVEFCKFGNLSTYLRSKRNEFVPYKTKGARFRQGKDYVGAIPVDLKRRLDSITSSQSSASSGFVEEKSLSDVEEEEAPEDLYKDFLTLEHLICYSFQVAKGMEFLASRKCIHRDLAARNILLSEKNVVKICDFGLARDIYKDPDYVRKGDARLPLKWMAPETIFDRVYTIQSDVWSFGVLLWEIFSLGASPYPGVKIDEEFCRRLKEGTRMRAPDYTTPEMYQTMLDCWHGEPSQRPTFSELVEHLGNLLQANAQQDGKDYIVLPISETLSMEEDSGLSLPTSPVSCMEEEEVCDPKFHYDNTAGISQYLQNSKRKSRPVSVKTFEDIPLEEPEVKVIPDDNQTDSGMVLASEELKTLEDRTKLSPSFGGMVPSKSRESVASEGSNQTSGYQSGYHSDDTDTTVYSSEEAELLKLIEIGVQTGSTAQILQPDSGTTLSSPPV
cKIT, sequence (P10721 26-976): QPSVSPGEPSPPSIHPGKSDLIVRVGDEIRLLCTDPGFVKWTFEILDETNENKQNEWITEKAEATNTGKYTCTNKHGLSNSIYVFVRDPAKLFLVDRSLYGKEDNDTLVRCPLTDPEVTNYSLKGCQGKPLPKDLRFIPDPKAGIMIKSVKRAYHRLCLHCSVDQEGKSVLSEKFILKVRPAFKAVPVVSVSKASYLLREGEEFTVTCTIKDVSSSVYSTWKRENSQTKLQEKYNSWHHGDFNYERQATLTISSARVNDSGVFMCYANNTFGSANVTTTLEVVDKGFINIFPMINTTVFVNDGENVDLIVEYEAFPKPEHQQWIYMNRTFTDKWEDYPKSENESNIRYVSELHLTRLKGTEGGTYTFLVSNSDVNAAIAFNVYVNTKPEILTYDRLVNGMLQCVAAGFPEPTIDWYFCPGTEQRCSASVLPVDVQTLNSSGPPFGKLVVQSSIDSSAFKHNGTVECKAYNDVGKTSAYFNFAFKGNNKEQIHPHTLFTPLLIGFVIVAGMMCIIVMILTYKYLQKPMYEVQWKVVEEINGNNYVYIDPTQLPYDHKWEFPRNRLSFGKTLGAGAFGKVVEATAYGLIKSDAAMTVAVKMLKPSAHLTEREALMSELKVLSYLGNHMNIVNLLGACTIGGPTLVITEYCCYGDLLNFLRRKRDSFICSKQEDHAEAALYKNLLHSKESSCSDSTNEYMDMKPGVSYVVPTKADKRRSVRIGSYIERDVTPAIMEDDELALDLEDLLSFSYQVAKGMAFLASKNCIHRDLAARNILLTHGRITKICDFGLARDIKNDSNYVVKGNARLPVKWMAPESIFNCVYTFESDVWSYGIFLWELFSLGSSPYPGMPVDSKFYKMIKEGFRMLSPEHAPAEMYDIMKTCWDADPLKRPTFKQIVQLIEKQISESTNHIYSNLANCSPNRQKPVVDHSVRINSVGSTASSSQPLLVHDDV
PDGFR-α, sequence (P16234 24-1089, species assumed): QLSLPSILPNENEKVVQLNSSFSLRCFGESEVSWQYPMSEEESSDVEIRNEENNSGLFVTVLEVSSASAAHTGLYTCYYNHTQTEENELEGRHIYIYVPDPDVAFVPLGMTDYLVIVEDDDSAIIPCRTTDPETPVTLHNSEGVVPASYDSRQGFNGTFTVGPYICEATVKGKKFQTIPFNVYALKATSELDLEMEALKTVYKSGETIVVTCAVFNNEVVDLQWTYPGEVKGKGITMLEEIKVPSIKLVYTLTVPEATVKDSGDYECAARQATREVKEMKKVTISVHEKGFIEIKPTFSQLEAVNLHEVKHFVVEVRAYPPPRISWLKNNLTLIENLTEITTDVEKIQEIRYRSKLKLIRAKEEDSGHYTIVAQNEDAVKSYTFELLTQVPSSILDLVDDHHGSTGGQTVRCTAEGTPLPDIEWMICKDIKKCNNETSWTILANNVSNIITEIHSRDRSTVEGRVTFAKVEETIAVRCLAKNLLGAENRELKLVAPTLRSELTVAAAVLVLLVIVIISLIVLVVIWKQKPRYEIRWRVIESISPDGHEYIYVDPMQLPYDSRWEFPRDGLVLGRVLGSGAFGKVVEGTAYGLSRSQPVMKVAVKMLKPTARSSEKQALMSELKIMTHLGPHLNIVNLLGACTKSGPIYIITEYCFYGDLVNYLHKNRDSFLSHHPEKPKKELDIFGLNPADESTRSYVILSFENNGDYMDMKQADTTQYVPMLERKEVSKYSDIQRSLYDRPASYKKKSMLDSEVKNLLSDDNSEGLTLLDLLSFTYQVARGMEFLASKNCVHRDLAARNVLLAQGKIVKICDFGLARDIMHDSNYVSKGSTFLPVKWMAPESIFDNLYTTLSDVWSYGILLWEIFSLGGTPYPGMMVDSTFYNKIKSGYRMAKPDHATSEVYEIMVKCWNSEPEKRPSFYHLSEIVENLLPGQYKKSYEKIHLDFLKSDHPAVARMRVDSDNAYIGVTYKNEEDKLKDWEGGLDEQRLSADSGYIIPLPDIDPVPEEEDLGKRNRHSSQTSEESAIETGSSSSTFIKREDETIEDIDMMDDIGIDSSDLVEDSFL

| Compound | IC50 (PDGFR-α) [nM] | IC50 (VEGFR-2) [nM] | IC50 (cKIT) [nM] | IC50 (A172) [µM] | IC50 (A2780) [µM] | IC50 (A375) [µM] | IC50 (U251) [µM] | Kp ([1]; male, brain/plasma) | Kp ([1]; brain) |
| --- | --- | --- | --- | --- | --- | --- | --- | --- | --- |
| Fc1ccc(-c2cnc(Nc3cc(CC4CCNCC4)ccn3)s2)cc1 [Example 001, [5-(4-Fluoro-phenyl)-thiazol-2-yl]-(4-piperidin-4-ylmethyl-pyridin-2-yl)-amine] | < 10 | > 10 | < 10 | > 10 | > 1 | > 1 | > 1 |  |  |
| OCCN1CCC(c2ccnc(Nc3ncc(-c4cc(F)cc(F)c4)s3)c2)CC1 [Example 039, 2-{2'-[5-(3,5-Difluoro-phenyl)-thiazol-2-ylamino]-3,4,5,6-tetrahydro-2H-[4,4']bipyridinyl-1-yl}-ethanol] | < 10 | > 10 | > 10 | > 1 | > 10 | > 1 | > 10 |  |  |
| OCCN1CCC(c2ccnc(Nc3ncc(-c4ccc(F)c(F)c4)s3)c2)CC1 [Example 038, 2-{2'-[5-(3,4-Difluoro-phenyl)-thiazol-2-ylamino]-3,4,5,6-tetrahydro-2H-[4,4']bipyridinyl-1-yl}-ethanol] | < 10 | > 10 | > 10 | ≤ 1 | > 10 | > 1 | > 1 |  |  |
| CC(=O)N1CCCC(Cc2cccc(Nc3ncc(-c4ccc(F)cc4)s3)n2)CC1 (stereo not drawn) [Example 007, 1-(4-{6-[5-(4-Fluoro-phenyl)-thiazol-2-ylamino]-pyridin-2-ylmethyl}-azepan-1-yl)-ethanone] | > 10 | > 100 | > 10 | > 1 | > 1 | > 1 | > 1 |  |  |
| OCC(O)CN1CCC(c2ccnc(Nc3ncc(-c4ccc(F)cc4)s3)c2)CC1 (stereo not drawn) [Example 034, 3-{2'-[5-(4-Fluoro-phenyl)-thiazol-2-ylamino]-3,4,5,6-tetrahydro-2H-[4,4']bipyridinyl-1-yl}-propane-1,2-diol] | < 10 | > 10 | < 10 | > 1 | > 10 |  |  | 1.79 |  |
| CC(=O)N1CCOCC(Cc2ccnc(Nc3ncc(-c4ccc(F)cc4)s3)c2)C1 (stereo not drawn) [Example 012, 1-(6-{2-[5-(4-Fluoro-phenyl)-thiazol-2-ylamino]-pyridin-4-ylmethyl}-[1,4]oxazepan-4-yl)-ethanone] | < 10 | > 10 | > 10 | > 1 | > 1 | > 1 | > 10 |  |  |
| Fc1ccc(-c2cnc(Nc3cccc(CC4CCCNCC4)n3)s2)cc1 (stereo not drawn) [Example 006, (6-Azepan-4-ylmethyl-pyridin-2-yl)-[5-(4-fluoro-phenyl)-thiazol-2-yl]-amine] | > 10 | > 100 | > 10 | > 1 | ≤ 1 | ≤ 1 | > 1 |  |  |
| O=C(Nc1ccccc1Cl)c1cnc(Nc2cc(C3CCN(CCO)CC3)ccn2)s1 [Example 044, 2-[1'-{2-Hydroxy-ethyl)-1',2',3',4',5',6' -hexahydro-[4,4']bipyridinyl-2-ylamino]-thiazole-5-carboxylic acid (2-chlorophenyl)-amide] | < 10 | > 100 | > 10 |  |  | > 1 |  | 0.19 |  |
| COC(=O)C1CC(Cc2ccnc(Nc3ncc(-c4ccccc4)s3)c2)CC1N (stereo not drawn) [Example 023, 2-Amino-4-[2-(5-phenyl-thiazol-2-ylamino)-pyridin-4-ylmethyl]-cyclopentanecar-boxylic acid methyl ester] | < 10 | > 10 | < 10 | > 1 | > 1 |  |  |  | 0.78 |
| OCCN1CCC(c2ccnc(Nc3ncc(-c4ccccc4F)s3)c2)CC1 [Example 036, 2-{2'-[5-(2-Fluoro-phenyl)-thiazol-2-ylamino]-3,4,5,6-tetrahydro-2H-[4,4']bipyridinyl-1-yl}-ethanol] | < 10 | > 10 | < 10 | > 10 | > 1 | > 1 | > 1 |  |  |
| CC(=O)N1CCC(Cc2ccnc(Nc3ncc(-c4ccc(F)cc4)s3)c2)CC1 [Example 002, 1-(4-{2-[5-(4-Fluoro-phenyl)-thiazol-2-ylamino]-pyridin-4-ylmethyl}-piperidin-1-yl)-ethanone] | < 10 | > 10 | < 10 | > 1 | > 1 | > 1 | > 10 |  |  |
| CN1CCCC(Cc2cccc(Nc3ncc(-c4ccc(F)cc4)s3)n2)CC1 (stereo not drawn) [Example 008, [5-(4-Fluoro-phenyl)-thiazol-2-yl]-[6-(1-methyl-azepan-4-ylmethyl)-pyridin-2-yl]-amine] | > 10 | > 1000 | > 10 | > 10 | > 1 | > 1 | > 1 |  |  |
| OCCN1CCC(c2cc(Nc3ncc(-c4ccccc4)s3)ccn2)CC1 [Example 033, 2-[4-(5-Phenyl-thiazol-2-ylamino)-3',4',5',6'-tetrahydro-2'H-[2,4']bipyridinyl-1'-yl]-ethanol] | > 10 | > 100 | > 100 | > 10 | > 10 | > 10 | > 10 |  |  |
| c1ccc(-c2cnc(Nc3cc(CCC4CCCN4)ccn3)s2)cc1 (stereo not drawn) [Example 015, (5-Phenyl-thiazol-2-yl)-[4-(2-pyrrolidin-2-yl-ethyl)-pyridin-2-yl]-amine] | < 10 | > 10 | > 100 | > 1 | > 1 | > 1 | > 10 |  |  |
| CS(=O)(=O)N1CCC(Cc2ccnc(Nc3ncc(-c4ccc(F)cc4)s3)c2)CC1 [Example 005, [5-(4-Fluoro-phenyl)-thiazol-2-yl]-[4-(1-methanesulfonyl-piperidin-4-ylmethyl)-pyridin-2-yl]-amine] | < 10 | > 10 | > 10 | > 1 | > 1 | > 1 | > 10 |  |  |
| Fc1ccc(-c2cnc(Nc3cc(CC4CCCC5CNCC54)ccn3)s2)cc1 (stereo not drawn) [Example 017, [5-(4-Fluoro-phenyl)-thiazol-2-yl]-[4-(octahydro-isoindol-4-ylmethyl)-pyridin-2-yl]-amine] | < 10 | > 10 | < 10 | > 1 | < 1 |  |  | 0.28 |  |
| OCCN1CCC(c2ccnc(Nc3ncc(-c4cccc(F)c4)s3)c2)CC1 [Example 037, 2-{2'-[5-(3-Fluoro-phenyl)-thiazol-2-ylamino]-3,4,5,6-tetrahydro-2H-[4,4']bipyridinyl-1-yl}-ethanol] | < 10 | > 10 | < 10 | > 10 | > 1 | > 10 | > 1 |  |  |

— patent publication EP2719696A1, “NOVEL KINASE INHIBITORS” (Asinex Limited, priority 2011, dated 2012)
